Measurements published in patent publication US11007274B2, “Compounds for medicinal applications” (Ausvir Therapeutics Pty LTD, priority 2015, dated 2021).
In brackets after ≈: the same amount, converted by molar mass. Read-outs that look alike come from different tables or passages of the source.

Experiments:
CA/07/2009 = test: microbe, parasite or virus in culture; assay type: cell-based
Duck/MN/1525/81 = assay type: cell-based; conditions: Table 7
Perth/16/2009 = test: microbe, parasite or virus in culture; assay type: cell-based
Florida/4/2006 = test: microbe, parasite or virus in culture; assay type: cell-based
A/Solomon Island/3/06 = test: microbe, parasite or virus in culture; assay type: cell-based; conditions: unidentified influenza virus, read-out: EC50 A/Solomon Island/3/06
A/Townsville/74/2011 = test: microbe, parasite or virus in culture; assay type: cell-based; conditions: unidentified influenza virus, read-out: EC50 A/Townsville/74/2011
A/Mississippi/03/01H274Y = assay type: cell-based, influenza virus
A/Perth/261/2009 = test: microbe, parasite or virus in culture; assay type: cell-based; conditions: unidentified influenza virus, read-out: EC50 A/Perth/261/2009
A/Victoria/170/2012 = test: microbe, parasite or virus in culture; assay type: cell-based; conditions: unidentified influenza virus, read-out: EC50 A/Victoria/170/2012
A/Sydney/5/97 = test: microbe, parasite or virus in culture; assay type: cell-based; conditions: unidentified influenza virus, read-out: EC50 A/Sydney/5/97
A/Victoria/503/06 = test: microbe, parasite or virus in culture; assay type: cell-based; conditions: unidentified influenza virus, read-out: EC50 A/Victoria/503/06
B/Townsville/2/2011 = test: microbe, parasite or virus in culture; assay type: cell-based; conditions: unidentified influenza virus, read-out: EC50 B/Townsville/2/2011
A/PR/8 virus H1N1 = test: Viral Plaque Reduction Assay (Table 23); assay type: cell-based, influenza virus; conditions: Influenza A virus; Table 23; plaque reduction; read-out: EC50
[1] = system: Influenza A virus H3N2, Perth/16/2009; test: microbe, parasite or virus in culture; assay type: cell-based; conditions: read-out: EC90
[2] = system: Influenza A virus H3N2, Perth/16/2009; test: microbe, parasite or virus in culture; assay type: cell-based
[3] = system: Influenza A virus H1N1, California/07/2009; test: microbe, parasite or virus in culture; assay type: cell-based; conditions: read-out: EC90
[4] = system: Influenza A virus H1N1, California/07/2009; test: microbe, parasite or virus in culture; assay type: cell-based
[5] = system: Influenza A virus H5N1, Duck/MN/1525/81; test: microbe, parasite or virus in culture; assay type: cell-based
[6] = system: Influenza B virus, B/Florida/4/2006; test: microbe, parasite or virus in culture; assay type: cell-based; conditions: Table 19, […], B/Florida/4/2006, read-out: EC50
[7] = system: Influenza B virus, B/Florida/4/2006; test: microbe, parasite or virus in culture; assay type: cell-based

CC(=O)N[C@H]1[C@H]([C@H](OC(=O)NCCCCCCNC(=O)c2cc(C(=O)O)c(C(=O)NCCCCCCNC(=O)O[C@@H]([C@@H]3OC(C(=O)O)=C[C@H](N=C(N)N)[C@H]3NC(C)=O)[C@H](O)CO)cc2C(=O)O)[C@H](O)CO)OC(C(=O)O)=C[C@@H]1N=C(N)N [MD015, PK1 PYR(Z)2]
EC50 (CA/07/2009; Table 7): 6 nM
EC50 CA/07/2009 (CA/07/2009; Table 7, MDCK cell line): 0.007 µg/mL (≈ 0.006 µM)
EC50 (Duck/MN/1525/81): 0.34 nM
EC50 (Perth/16/2009; Table 7): 6.7 nM
EC50 Perth/16/2009 (Perth/16/2009; Table 7): 0.0078 µg/mL (≈ 0.00668 µM)
EC50 (Florida/4/2006; Table 7): 2.1 nM
EC50 Florida/4/2006 (Florida/4/2006; Table 7): 0.0025 µg/mL (≈ 0.00214 µM)

CC(=O)N[C@H]1C([C@H](OC(=O)NCCCCCCCCCNC(=O)[C@@H]2CC(C(=O)NCCCCCCNC(=O)O[C@H](C(O)CO)C3OC(C(=O)O)=C[C@H](NC(=N)N)[C@H]3NC(C)=O)C[C@H](C(=O)N[C@H](CC(=O)NC(CS(=O)(=O)O)C(=O)O)C(=O)N[C@H](CC(=O)NC(CS(=O)(=O)O)C(=O)O)C(=O)N[C@H](CC(=O)NC(CS(=O)(=O)O)C(=O)O)C(=O)O)C2)C(O)CO)OC(C(=O)O)=C[C@@H]1NC(=N)N (stereo partly drawn) [MD348, CHTCA(Z0)2-[D-Asp(D-Cyst)-D-Asp(D-Cyst)-D-Asp(D-Cyst)]-OH]
EC50 (A/Solomon Island/3/06): 0.016 nM
EC50 (A/Townsville/74/2011): 0.06 nM
EC50 (A/Mississippi/03/01H274Y): 0.27 nM
EC50 (A/Perth/261/2009): 0.35 nM
EC50 (A/Victoria/170/2012): 0.83 nM
EC50 (A/Sydney/5/97): 1.26 nM
EC50 (A/Victoria/503/06): 4.5 nM
EC50 (B/Townsville/2/2011): 0.28 nM
EC50 (A/PR/8 virus H1N1): 1.92 nM

CC(=O)N[C@H]1[C@H]([C@H](OC(=O)NCCCCCNC(=O)[C@@H]2C[C@H](C(=O)NCCCCCNC(=O)O[C@@H]([C@@H]3OC(C(=O)O)=C[C@H](N=C(N)N)[C@H]3NC(C)=O)[C@H](O)CO)C[C@H](C(=O)N[C@@H](CC(=O)O)C(=O)O)C2)[C@H](O)CO)OC(C(=O)O)=C[C@@H]1N=C(N)N [MD242, CHTCA(Zp)2-L-Asp]
EC50 (CA/07/2009; Table 7): 6.58 nM
EC50 CA/07/2009 (CA/07/2009; Table 7, MDCK cell line): 0.008 µg/mL (≈ 0.00658 µM)
EC50 (Duck/MN/1525/81): 0.7 nM
EC50 (Perth/16/2009; Table 7): 3.46 nM
EC50 Perth/16/2009 (Perth/16/2009; Table 7): 0.0042 µg/mL (≈ 0.00345 µM)
EC50 (Florida/4/2006; Table 7): 0.58 nM
EC50 Florida/4/2006 (Florida/4/2006; Table 7): 0.00071 µg/mL (≈ 0.000584 µM)

NC(=O)c1ncn([C@@H]2O[C@H](CO)[C@@H](O)[C@H]2O)n1 [Ribavirin, reference compound]
EC90 [1]: 4.4 µg/mL (≈ 18 µM)
EC50 [2]: 5 µg/mL (≈ 20.5 µM)
EC90 [3]: 2.3 µg/mL (≈ 9.42 µM)
EC50 [4]: 2.5 µg/mL (≈ 10.2 µM)
EC90 [5]: 2.3 µg/mL (≈ 9.42 µM)
EC50 [6]: 10 µg/mL (≈ 40.9 µM)
EC50 [7]: 9.5 µg/mL (≈ 38.9 µM)
CC50 (in vitro; CC50, Table 9, line Neutral Red (Cytopathic effect/Toxicity)): > 1000 µg/mL
CC50 (in vitro; CC50, Table 10, line Neutral Red (Cytopathic effect/Toxicity)): > 1000 µg/mL
CC50 (in vitro; CC50, Table 11, line Neutral Red (Cytopathic effect/Toxicity)): > 320 µg/mL
CC50 (in vitro; CC50, Table 12, line Neutral Red (Cytopathic effect/Toxicity)): > 320 µg/mL
CC50 (in vitro; CC50, Table 13, line Neutral Red (Cytopathic effect/Toxicity)): > 320 µg/mL
CC50 (in vitro; CC50, Table 14, line Neutral Red (Cytopathic effect/Toxicity)): > 320 µg/mL
CC50 (in vitro; CC50, Table 15, line Neutral Red (Cytopathic effect/Toxicity)): > 320 µg/mL
CC50 (in vitro; CC50, Table 16, line Neutral Red (Cytopathic effect/Toxicity)): > 320 µg/mL
CC50 (in vitro; CC50, Table 18, line Neutral Red (Cytopathic effect/Toxicity)): > 320 µg/mL
CC50 (in vitro; CC50, Table 19, Neutral Red (Cytopathic effect/Toxicity) rows): > 320 µg/mL

CC(=O)N[C@H]1[C@H]([C@H](OC(=O)NCCCCCCNC(=O)c2cc(C(=O)NCCCCCCNC(=O)O[C@@H]([C@@H]3OC(C(=O)O)=C[C@H](N=C(N)N)[C@H]3NC(C)=O)[C@H](O)CO)c(C(=O)O)cc2C(=O)O)[C@H](O)CO)OC(C(=O)O)=C[C@@H]1N=C(N)N [MD016, PK2 PYR(Z)2]
EC50 (CA/07/2009): 7.7 nM
EC50 CA/07/2009 (CA/07/2009): 0.009 µg/mL (≈ 0.00771 µM)
EC50 (Duck/MN/1525/81): 0.51 nM
EC50 (Perth/16/2009): 2.8 nM
EC50 Perth/16/2009 (Perth/16/2009): 0.0033 µg/mL (≈ 0.00283 µM)
EC50 (Florida/4/2006): 7 nM
EC50 Florida/4/2006 (Florida/4/2006): 0.0082 µg/mL (≈ 0.00703 µM)
